One assay has as its system human dermal fibroblasts. The following applies: vitamin U 10^−2 or 10^−3 M, DMEM with 1% FBS, scratch; vs control not treated with vitamin.
The subject of a further assay is collagen. As to conditions: mouse, in vivo. As for the experimental part: (§1) An experiment on Inhibitory effect on collagenase of the cosmetic composition containing vitamin U of the present invention was carried out. The experiment was carried for 4 weeks with the Atrichia mice divided into two groups, each of which is composed of 10 mice. Vitamin U containing cosmetic formula, prepared in cream with 10% vitamin U, was applied onto the back skin of the experimental group mouse every day. In the meantime, vitamin U-free ordinary formula was applied on the control. 4 weeks later, back skin was picked from both groups. RNA was extracted from the skin tissues, followed by real-time PCR to investigate the transcription level of collagenase mRNA (FIG. 8).

A further assay has as its system collagenase mRNA. The following applies: mouse, in vivo. As for the experimental part: as §1
Assay [1] relates to gastric mucosa. As to conditions: rabbit, vitamin U administered; cited from earlier work.
Assay [2] has as its system gastric mucosa. As to conditions: pig, vitamin U administered; cited from earlier work.
Assay [3] has as its system human epidermal keratinocytes. As to conditions: vitamin U 10^−2, 10^−3, 10^−4 M, 1/10 growth factor, scratch; vs control not treated with vitamin U.
Description: The following experiment was performed to investigate if vitamin U could increase the movement of human epidermal keratinocytes (hereinafter hEK) in vitro. The basic culture medium was obtained fromDefined Keratinocyte-SFM (Gibco, USA) with Defined Keratinocyte-SFM Growth supplement and growth factors. For the experiment, such an amount of 1/10 growth factor and vitamin U were added that the final concentrations of vitamin U should be 10^−2, 10^−3, and 10^−4 M. In the meantime, vitamin-free medium containing 1/10 growth factor was used for the control.
Human keratinocytes were cultured in a 6-well culture dish until the cells were grown at least 90% confluent. The cells were scratched out by using 2 mm micro tip. The fallen-off cells were washed out with PBS, followed by culture in another experimental medium.

SMILES strings stand for the structures.

Description for human dermal fibroblasts: The medium used for the wound healing experiment was obtained from DMEM with 1% FBS. Such an amount of vitamin U was added that the final vitamin U concentration should be 10^−2 or 10^−3 M. In the meantime, vitamin-free medium containing 1% FBS was used for the control.
Human fibroblasts were cultured in a 6-well culture dish until the cells were grown at least 90% confluent. The cells were scratched out by using 2 mm micro tip. The fallen-off cells were washed out with PBS, followed by culture in another experimental medium. Then, it was observed by photograph how many cells migrate into the room between scratches.

As for `CS.CSCCC(N)C(=O)O.Cl` (racemic) [vitamin U, DL-methionine methylsulfonium chloride], the migration of fibroblasts result in the assay on human dermal fibroblasts was “much more increased”. For the same compound, in the assay on collagen, the “collagen (Western blotting)” value is “increase of collagen”. In the assay on collagenase mRNA, the “collagenase mRNA transcription” value was “significant inhibition”. The “mucin secretion of gastric mucosa” value in the assay on gastric mucosa [1] is “increased”. The “ulcer of gastric mucosa” value in the assay with gastric mucosa [2] is given as “suppressed”. In addition, in assay [3], the migration of keratinocytes entry is “much more increased”.

(Values after patent publication US20110009489A1, “COSMETIC COMPOSITION COMPRISING VITAMIN U AS ACTIVE INGREDIENT FOR HEALING WOUNDS AND REDUCING WRINKLES” (CUSKIN CO., LTD., priority 2008, published 2011).)
